Data as given in patent US9316632B2, “Methods of screening chemotherapeutic agents and treating cancer” (Marshall University Research Corporation, priority 2009, dated 2016).

Columns and labels:
[1] = system: bulk cancer cells (anaplastic ependymoma, WHO grade III); test: MTT assay, bulk cancer cells, Example 2 anaplastic ependymoma; type: cell-based, human; conditions: FIG. 9
Experimental: (§1) Chemosensitivity assay. Sensitivity and resistance to chemotherapy was assessed using an MTT assay on 1×10^3 cells plated in 5 replicas into 96-well plates. Briefly, equal number of bulk of tumor cells grown in monolayer and cancer stem-like cells CD133(+) three-dimensionally grown in the bioreactor, were plated separately in 96-well dishes and incubated at 37° C. for 24-hours. Then the cells were challenged for a 1-hour pulse with a panel of anticancer drugs as indicated by the oncologist. Each anticancer drug was tested in a range of doses including the clinically relevant dose. An MTT assay was performed 24-hours following chemotherapy treatment to assess cell viability as previously described. A dose response chart was developed in which samples were scored as responsive (60-100% cell kill), moderately responsive (40-60% cell kill), low to moderate responsive (20-40% cell kill), low responsive (10-20% cell kill), and non-responsive (0-10% cell kill).
(§2) Similar to the experiments described herein above, the cancer cell sample was initially cultured as a suspension and the cancer cells were immunophenotyped by flow cytometer using anti-CD133 (Milteny Biotech, Auburn, Calif.), -CD34 (Milteny Biotech, Auburn, Calif.), -CD38 (Milteny Biotech, Auburn, Calif.), -CD44 (BD Bioscience, Sparks, Md.), -CD24 (Milteny Biotech, Auburn, Calif.), -CXCR4 (Milteny Biotech, Auburn, Calif.), -OCT3/4 (BD Bioscience, Sparks, Md.), and -Nanog (BD Bioscience, Sparks, Md.).
(§3) Then, to then expand the immature cancer stem-like cell population of CD133+ cells present within the ependymoma primary culture, the ependymoma cells were grown in a rotating vessel, as describe herein above and as previously described. To assess the efficacy of various chemotherapeutic agents on the cancer cell sample, an MTT assay was the performed as also described herein.

[2] = system: bulk cancer cells (reoccurrence of anaplastic ependymoma); test: MTT assay, bulk cancer cells from the reoccurrence of the Example 1 ependymoma; type: cell-based, human; conditions: reoccurrence biopsy, FIG. 6
Experimental: as §1

[3] = system: cancer stem-like cells (anaplastic ependymoma, WHO grade III); test: MTT assay, cancer stem-like cells, Example 2 anaplastic ependymoma; type: cell-based, human; conditions: FIG. 9
Experimental: (§4) Three-Dimensional Bioreactor Cell Culture. A hydrodynamic focusing bioreactor (HFB) (Celdyne, Houston Tex.) was used as previously described to proliferate cancer stem-like cells. Culture media, oxygenation, speed, temperature and CO2 were kept consistently constant for ten days. In certain instances, cancer stem-like cells were cultured in the HFB and exposed for 2 to 6 hours with ozone (O3) levels at levels of 0.08 to 0.40 PPM to cause a fluctuation in the cellular redox environment (redox cycle). Ozone was generated with two OREC Model OZONEV1-O ozonizers (Ozone Research and Equipment Corp., Phoenix, Ariz.), with compressed air used as a source of oxygen, and the concentration of ozone within the chambers was monitored throughout the exposure with three Dasibi 1003 AH ambient-air ozone monitors (Dasibi Environmental Corp., Glendale, Calif.). Cells were then counted and 1×10^6 cells were placed in the rotating vessel set at 25 rpm with airflow set at 20% for […]. Cells were then removed and counted again using trypan blue exclusion to determine cellular viability and cell number and plated in 96 wells for chemosensitivity testing. The cells were also reacted with florescent antibodies for phenotypic characterization.
as §1, §2, §3

[4] = system: cancer stem-like cells (reoccurrence of anaplastic ependymoma); test: MTT assay, cancer stem-like cells from the reoccurrence of the Example 1 ependymoma; type: cell-based, human; conditions: reoccurrence biopsy, FIG. 6
Experimental: as §4
(§5) Chemosensitivity assay. Sensitivity and resistance to chemotherapy was assessed using an MTT assay on 1×10^3 cells plated in 5 replicas into 96-well plates. […]

[5] = system: ependymoma cells grown in a monolayer (bulk cancer cells); test: MTT chemosensitivity assay, bulk cancer cells of the Example 1 ependymoma sample; type: cell-based, human; conditions: 1-hour pulse, MTT 24-hours after treatment, FIG. 5
Experimental: Single Cell Suspension and Primary Cell Culture. Single-cell suspensions from the ependymoma biopsy was prepared using the gentleMACS™ Dissociator (Miltenyi, Auburn, Calif.), and C Tubes using a standardized, semi-automated protocol based on a combination of mechanical tissue disruption and incubation with a 50% solution 0.025% trypsin and Accutase (Innovative Cell Technologies, San Diego, Calif.). Cells were serially plated in 24-well, 12-well, 6-well, 10-cm treated dishes and cultured to subconfluence in RPMI-1640 medium supplemented with 5% irradiated, heat inactivated, defined fetal bovine serum (Thermofisher/Hyclone), and 50 U of penicillin and 5 μg of streptomycin/mL of medium (Thermofisher/Mediatech).
as §1
(§6) To assess the efficacy of various chemotherapeutic agents on the cancer cell sample collected in Example 2, an MTT assay was performed on […] plated in 5 replicas into 96-well plates. Briefly, equal number of the bulk cancer cells grown in a monolayer and the CD133(+) cancer stem-like cells grown in the HFB were plated separately in 96-well dishes and incubated at 37° C. for 24-hours. Then, each of the cell cultures were challenged for a 1-hour pulse with various chemotherapeutic agents, including cisplatin, oxaliplatin, arabinoside-C, VP-16, busulfan, methotrexate, CPT-11, and doxorubicin. Each chemotherapeutic agent was tested in a range of doses including their respective clinically relevant doses.
The MTT assay was then performed 24-hours following the chemotherapy treatment to assess cell viability. A dose response chart was developed in which samples were scored as responsive (60-100% cell kill), moderately responsive (40-60% cell kill), low to moderate responsive (20-40% cell kill), low responsive (10-20% cell kill), and non-responsive (0-10% cell kill). This assessment was independently performed for both the bulk cancer cells and the cancer stem-like cells of the ependymoma cancer cell sample.

[6] = system: CD133(+) cancer stem-like cells grown in the HFB (ependymoma); test: MTT chemosensitivity assay, cancer stem-like cells of the Example 1 ependymoma sample; type: cell-based, human; conditions: 1-hour pulse, MTT 24-hours after treatment, FIG. 5
Experimental: as §4, §1
To then expand the immature cancer stem-like cell population of CD 133+ cells present within the ependymoma primary culture, the ependymoma cells were grown in a rotating vessel, as previously described. Briefly, 1×10^6 of the ependymoma cells from a monolayer culture were grown for ten days using a Hydrodynamic Focusing Bioreactor (HFB) (Celdyne, Houston, Tex.) at 25 rpm with airflow set at 20%, and culture media, oxygenation, speed, temperature and CO2 were kept consistently constant for ten day period. Following the ten day period, cells were then removed and counted again from the HFB, and trypan blue exclusion was used to determine cellular viability and cell number. The cells were also reacted with florescent antibodies for phenotypic characterization.
as §6

medulloblastoma cells = test: MTT assay, Example 5 medulloblastoma cells; type: cell-based, human; conditions: FIG. 15
Experimental: as §1

[7] = system: cancer stem-like cells (IDH-1 negative glioblastoma); test: MTT assay, cancer stem-like cells, Example 3 IDH-1 negative glioblastoma; type: cell-based, human; conditions: at the concentration tested, FIG. 11
Experimental: as §4, §5

[8] = system: intradural, extramedullary anaplastic diffuse spinal ependymoma, WHO grade III; test: Clinical course of the Example 1 subject under treatment; type: in vivo, human; conditions: recurring spinal ependymoma
[9] = system: bulk cancer cells (IDH-1 negative glioblastoma, WHO grade IV); test: MTT assay, bulk cancer cells, Example 4 IDH-1 negative glioblastoma; type: cell-based, human; conditions: FIG. 13
Experimental: as §1

[10] = system: bulk cancer cells (IDH-1 negative glioblastoma); test: MTT assay, bulk cancer cells, Example 3 IDH-1 negative glioblastoma; type: cell-based, human; conditions: FIG. 11
Experimental: as §1

[11] = system: cancer stem-like cells (IDH-1 negative glioblastoma, WHO grade IV); test: MTT assay, cancer stem-like cells, Example 4 IDH-1 negative glioblastoma; type: cell-based, human; conditions: FIG. 13
Experimental: as §4, §5

Molecule	sensitivity to chemotherapy (MTT cell viability) [1]	sensitivity to chemotherapy (MTT cell viability) [3]	sensitivity to chemotherapy (MTT cell viability) [5]	sensitivity to chemotherapy (MTT cell viability) [6]	other results
S=C=NCc1ccccc1 [BITC, benzyl isothiocyanate]	not sensitive	not sensitive			sensitivity to chemotherapy (MTT cell viability) [2]: sensitive; sensitivity to chemotherapy (MTT cell viability) [4]: sensitive
CCc1c2c(nc3ccc(OC(=O)N4CCC(N5CCCCC5)CC4)cc13)-c1cc3c(c(=O)n1C2)COC(=O)[C@]3(O)CC [CPT-11, irinotecan]	not sensitive	not sensitive	sensitive	moderate chemosensitivity	
COc1cc([C@@H]2c3cc4c(cc3[C@@H](O[C@@H]3O[C@@H]5CO[C@@H](C)O[C@H]5[C@H](O)[C@H]3O)[C@H]3COC(=O)[C@H]23)OCO4)cc(OC)c1O [VP-16, etoposide]			completely not responsive	completely not responsive	effectiveness at treating the medulloblastoma cells (MTT) (medulloblastoma cells): effective
Nc1ccn([C@@H]2O[C@H](CO)[C@@H](O)[C@@H]2O)c(=O)n1 [arabinoside-C]			completely not responsive	completely not responsive	
CS(=O)(=O)OCCCCOS(C)(=O)=O [busulfan]			minimally to moderately responsive	minimally to moderately responsive	
N.N.[Cl][Pt][Cl] [cisplatin]			sensitive	moderate chemosensitivity	cell kill [1]: 30%; cell kill [3]: 30%
COc1cccc2c1C(=O)c1c(O)c3c(c(O)c1C2=O)C[C@@](O)(C(=O)CO)C[C@@H]3O[C@H]1C[C@H](N)[C@H](O)[C@H](C)O1 [doxorubicin]			sensitive	highly sensitive	
O=NN(CCCl)C(=O)NC1CCCCC1 [lomustine]	not sensitive	not sensitive			
CN(Cc1cnc2nc(N)nc(N)c2n1)c1ccc(C(=O)N[C@@H](CCC(=O)O)C(=O)O)cc1 [methotrexate]			minimally to moderately responsive	minimally to moderately responsive	
O=C1[O][Pt]2([NH][C@@H]3CCCC[C@H]3[NH]2)[O]C1=O [oxaliplatin]	not sensitive	not sensitive	completely not responsive	completely not responsive	
CNNCc1ccc(C(=O)NC(C)C)cc1 [procarbazine]					cell kill [1]: 30%; cell kill [3]: 30%
Cn1nnc2c(C(N)=O)ncn2c1=O [temozolomide]					response score (MTT cell viability) [7]: non-responsive (non-responsive (0-10% cell kill)); clinical response of the tumor to treatment [8]: no response; cell kill [9]: 60%; cell kill [10]: 50%; cell kill [11]: 60%
bevacizumab	not sensitive	not sensitive			
